Results published in the NIST ThermoML archive (doi:10.1016/j.fluid.2016.08.002).
Numbers after ± are expanded uncertainties.

Assay: xn = mol fraction of the nth substance listed
Settings: Gas, Vibrating tube method

S [hydrogen sulfide] + C
Settings | mass density [kg/m3]
253.4 K, 9215 kPa, x2 = 0.8685 | 128.92 ± 1.6
253.4 K, 9484 kPa, x2 = 0.8685 | 135.48 ± 1.7
253.41 K, 10167 kPa, x2 = 0.8685 | 150.17 ± 1.9
253.42 K, 10405 kPa, x2 = 0.8685 | 155.11 ± 2
253.42 K, 10879 kPa, x2 = 0.8685 | 164.94 ± 2.1
253.42 K, 11161 kPa, x2 = 0.8685 | 170.62 ± 2.1
253.43 K, 9711 kPa, x2 = 0.8685 | 140.67 ± 1.8
253.43 K, 9944 kPa, x2 = 0.8685 | 145.46 ± 1.9
253.44 K, 10674 kPa, x2 = 0.8685 | 160.71 ± 2.1
253.45 K, 11408 kPa, x2 = 0.8685 | 175.6 ± 2.2
253.45 K, 12503 kPa, x2 = 0.8685 | 195.9 ± 2.3
253.46 K, 11691 kPa, x2 = 0.8685 | 181.06 ± 2.2
253.46 K, 11951 kPa, x2 = 0.8685 | 186.09 ± 2.2
253.46 K, 12221 kPa, x2 = 0.8685 | 190.99 ± 2.2
253.46 K, 12710 kPa, x2 = 0.8685 | 199.55 ± 2.3
253.47 K, 13026 kPa, x2 = 0.8685 | 204.72 ± 2.4
253.48 K, 13361 kPa, x2 = 0.8685 | 209.99 ± 2.4
253.49 K, 13557 kPa, x2 = 0.8685 | 213.18 ± 2.4
253.5 K, 13904 kPa, x2 = 0.8685 | 217.77 ± 2.5
253.53 K, 14217 kPa, x2 = 0.8685 | 222.31 ± 2.5
253.53 K, 14605 kPa, x2 = 0.8685 | 227.86 ± 2.5
253.53 K, 27036 kPa, x2 = 0.8685 | 316.4 ± 1.3
253.54 K, 15328 kPa, x2 = 0.8685 | 236.23 ± 2.7
253.56 K, 16209 kPa, x2 = 0.8685 | 246.09 ± 2.8
253.56 K, 23487 kPa, x2 = 0.8685 | 300.68 ± 1.6
253.57 K, 26154 kPa, x2 = 0.8685 | 313.25 ± 1.3
253.58 K, 16612 kPa, x2 = 0.8685 | 250.04 ± 2.8
253.59 K, 17129 kPa, x2 = 0.8685 | 255.23 ± 2.7
253.6 K, 17589 kPa, x2 = 0.8685 | 259.35 ± 2.6
253.61 K, 18036 kPa, x2 = 0.8685 | 263.28 ± 2.5
253.61 K, 18480 kPa, x2 = 0.8685 | 267.15 ± 2.4
253.62 K, 18822 kPa, x2 = 0.8685 | 269.8 ± 2.3
253.63 K, 19390 kPa, x2 = 0.8685 | 274.47 ± 2.2
253.64 K, 19853 kPa, x2 = 0.8685 | 277.53 ± 2.1
253.66 K, 21081 kPa, x2 = 0.8685 | 286.3 ± 1.9
253.66 K, 21605 kPa, x2 = 0.8685 | 289.87 ± 1.8
253.67 K, 22087 kPa, x2 = 0.8685 | 292.82 ± 1.7
253.68 K, 22512 kPa, x2 = 0.8685 | 295.31 ± 1.7
253.68 K, 22918 kPa, x2 = 0.8685 | 297.52 ± 1.6
253.72 K, 26573 kPa, x2 = 0.8685 | 314.9 ± 1.3
272.97 K, 448 kPa, x2 = 0.714 | 4.32 ± 0.45
272.98 K, 925 kPa, x2 = 0.714 | 9.1 ± 0.51
272.98 K, 1959 kPa, x2 = 0.714 | 21.08 ± 0.65
272.99 K, 1499 kPa, x2 = 0.714 | 15.62 ± 0.59
272.99 K, 2470 kPa, x2 = 0.714 | 27.39 ± 0.71
272.99 K, 15974 kPa, x2 = 0.714 | 304.94 ± 2.5
272.99 K, 16531 kPa, x2 = 0.714 | 310.78 ± 2.5
273 K, 5009 kPa, x2 = 0.714 | 66.37 ± 0.99
273 K, 13055 kPa, x2 = 0.714 | 265.48 ± 2.3
273 K, 13551 kPa, x2 = 0.714 | 273.7 ± 2.3
273 K, 14019 kPa, x2 = 0.714 | 280.64 ± 2.4
273 K, 14532 kPa, x2 = 0.714 | 287.5 ± 2.4
273 K, 15457 kPa, x2 = 0.714 | 298.99 ± 2.4
273.01 K, 12511 kPa, x2 = 0.714 | 252.68 ± 2.2
273.01 K, 14977 kPa, x2 = 0.714 | 293.17 ± 2.4
273.02 K, 4006 kPa, x2 = 0.714 | 49.21 ± 0.89
273.02 K, 4495 kPa, x2 = 0.714 | 57.7 ± 0.95
273.02 K, 5020 kPa, x2 = 0.8197 | 51.69 ± 0.95
273.03 K, 5418 kPa, x2 = 0.714 | 73.5 ± 1
273.03 K, 16977 kPa, x2 = 0.714 | 315.19 ± 2.6
273.03 K, 29571 kPa, x2 = 0.714 | 387.72 ± 1.5
273.03 K, 30070 kPa, x2 = 0.714 | 389.49 ± 1.5
273.04 K, 220 kPa, x2 = 0.8197 | 1.87 ± 0.36
273.04 K, 5526 kPa, x2 = 0.8197 | 58.55 ± 0.99
273.05 K, 512 kPa, x2 = 0.8197 | 4.39 ± 0.42
273.05 K, 6060 kPa, x2 = 0.8197 | 66.2 ± 1
273.05 K, 6535 kPa, x2 = 0.8197 | 73.36 ± 1
273.05 K, 19490 kPa, x2 = 0.8197 | 268.43 ± 2.2
273.05 K, 20545 kPa, x2 = 0.8197 | 276.64 ± 1.8
273.05 K, 27474 kPa, x2 = 0.714 | 379.67 ± 1.5
273.05 K, 29015 kPa, x2 = 0.714 | 385.58 ± 1.5
273.06 K, 1024 kPa, x2 = 0.8197 | 8.86 ± 0.5
273.06 K, 1546 kPa, x2 = 0.8197 | 13.54 ± 0.58
273.06 K, 1998 kPa, x2 = 0.8197 | 17.83 ± 0.65
273.06 K, 3515 kPa, x2 = 0.714 | 41.26 ± 0.84
273.06 K, 4568 kPa, x2 = 0.8197 | 45.89 ± 0.92
273.06 K, 7007 kPa, x2 = 0.8197 | 80.78 ± 1.1
273.06 K, 7503 kPa, x2 = 0.8197 | 88.86 ± 1.1
273.06 K, 19898 kPa, x2 = 0.8197 | 271.74 ± 2
273.06 K, 27956 kPa, x2 = 0.714 | 381.54 ± 1.5
273.07 K, 2472 kPa, x2 = 0.8197 | 22.64 ± 0.71
273.07 K, 2991 kPa, x2 = 0.714 | 34.29 ± 0.78
273.07 K, 4037 kPa, x2 = 0.8197 | 39.48 ± 0.87
273.07 K, 19004 kPa, x2 = 0.8197 | 264.22 ± 2.5
273.07 K, 21088 kPa, x2 = 0.8197 | 280.47 ± 1.6
273.07 K, 22026 kPa, x2 = 0.8197 | 286.58 ± 1.4
273.08 K, 3006 kPa, x2 = 0.8197 | 28.12 ± 0.77
273.08 K, 3496 kPa, x2 = 0.8197 | 33.34 ± 0.83
273.08 K, 8037 kPa, x2 = 0.8197 | 97.86 ± 1.2
273.08 K, 17450 kPa, x2 = 0.714 | 319.61 ± 2.6
273.08 K, 17522 kPa, x2 = 0.8197 | 249.57 ± 2.4
273.08 K, 18504 kPa, x2 = 0.8197 | 259.61 ± 2.5
273.08 K, 21490 kPa, x2 = 0.8197 | 283.16 ± 1.5
273.09 K, 8509 kPa, x2 = 0.8197 | 106.04 ± 1.2
273.09 K, 8697 kPa, x2 = 0.8197 | 109.34 ± 1.2
273.09 K, 18521 kPa, x2 = 0.714 | 328.7 ± 2.7
273.1 K, 18017 kPa, x2 = 0.8197 | 254.8 ± 2.4
273.1 K, 18931 kPa, x2 = 0.714 | 331.97 ± 2.8
273.1 K, 22561 kPa, x2 = 0.8197 | 289.86 ± 1.3
273.1 K, 28471 kPa, x2 = 0.714 | 383.53 ± 1.5
273.11 K, 9417 kPa, x2 = 0.8197 | 122.17 ± 1.4
273.11 K, 10159 kPa, x2 = 0.8197 | 135.6 ± 1.4
273.11 K, 14299 kPa, x2 = 0.8197 | 207.01 ± 2
273.11 K, 17004 kPa, x2 = 0.8197 | 243.74 ± 2.3
273.11 K, 17956 kPa, x2 = 0.714 | 324.07 ± 2.6
273.11 K, 23102 kPa, x2 = 0.8197 | 293.06 ± 1.3
273.12 K, 23507 kPa, x2 = 0.8197 | 295.4 ± 1.3
273.13 K, 10896 kPa, x2 = 0.8197 | 148.97 ± 1.6
273.13 K, 11490 kPa, x2 = 0.8197 | 159.68 ± 1.7
273.13 K, 12024 kPa, x2 = 0.8197 | 169.16 ± 1.7
273.13 K, 13513 kPa, x2 = 0.8197 | 194.52 ± 1.9
273.13 K, 14007 kPa, x2 = 0.8197 | 202.45 ± 2
273.13 K, 14904 kPa, x2 = 0.8197 | 216.11 ± 2.1
273.13 K, 15510 kPa, x2 = 0.8197 | 224.73 ± 2.1
273.13 K, 16041 kPa, x2 = 0.8197 | 231.85 ± 2.2
273.13 K, 16504 kPa, x2 = 0.8197 | 237.74 ± 2.2
273.13 K, 24081 kPa, x2 = 0.8197 | 298.69 ± 1.3
273.13 K, 27492 kPa, x2 = 0.8197 | 316.71 ± 1.2
273.13 K, 28026 kPa, x2 = 0.8197 | 319.37 ± 1.2
273.13 K, 28568 kPa, x2 = 0.8197 | 321.92 ± 1.1
273.13 K, 29088 kPa, x2 = 0.8197 | 324.13 ± 1.1
273.13 K, 29546 kPa, x2 = 0.8197 | 325.75 ± 1.1
273.13 K, 29999 kPa, x2 = 0.8197 | 327.01 ± 1.1
273.14 K, 10580 kPa, x2 = 0.8197 | 143.25 ± 1.5
273.14 K, 21825 kPa, x2 = 0.714 | 351.99 ± 1.7
273.14 K, 24511 kPa, x2 = 0.8197 | 301.13 ± 1.2
273.14 K, 26076 kPa, x2 = 0.8197 | 309.49 ± 1.2
273.14 K, 26577 kPa, x2 = 0.8197 | 312.08 ± 1.2
273.14 K, 26982 kPa, x2 = 0.8197 | 314.11 ± 1.2
273.15 K, 25182 kPa, x2 = 0.8197 | 304.96 ± 1.2
273.15 K, 25661 kPa, x2 = 0.8197 | 307.41 ± 1.2
273.16 K, 13305 kPa, x2 = 0.8197 | 191.11 ± 1.9
